Entries after “also recorded” stand apart in the source; their conditions may differ. Like-named read-outs stand apart in the source and are kept apart here.
Tests used:
hESC [1] = test: Differentiation protocol for NECS and rosette formation (brightfield, NES/ZO1 staining); format: cell-based, human; conditions: for neural rosette formation, RepSox compared to GW788388: hESCs treated, NES and ZO1 staining (FIG. 6); for morphology of NECS: suspension culture, brightfield (FIG. 3)
Text: As an example, one optimal condition was:

hESC [2] = conditions: for Cell death: 3 = low number of pyknotic nuclei; for Rosette: 3 = high number of neural rosettes; for Thickness Epithelium: thicker columnar epithelium of the neural rosette; for Final Score: sum of the parameter scores; for No Side Population (OTX2 Neg): score by OTX2 staining: 3 = no detection of OTX2 negative cells, evaluated only in conditions without NES negative cells
Method: The experimental protocol used for neural induction of hESC and subsequent generation and NSC line establishment can roughly be divided in three main stages—Neuroectoderm induction and NECS formation; NECS plating and rosette formation and finally NSC line establishment by replating the cells in expansion media.
50-90% confluent hESC were washed with PBS^−/− and dissociated from monolayer culture with TrypLE™ Select (Gibco) at 37° C. for approximately 5 minutes to obtain single-cell suspension. The single-cell suspension of hESCs was resuspended in NutriStem® supplemented with 10 μM ROCKi (Y-27632) and as standard 1 mL with cell densities of 1×10^5-2×10^5 cells per mL was seeded into one single well (around 3.5 cm^2) of a 12-well plates (Day 0).
At day 1, around 50% of the medium was exchanged with NECS media consisting of DMEM/F12 GlutaMAX™ supplement (Gibco™) supplemented with 20 U/mL Penicillin-streptomycin, 1% N-2 Supplement (Gibco™) and GW788388 or RepSox in different concentrations, without ROCKi. To initiate rotary NECS formation, plates were from day 1-6 placed on a Multi Bio 3D Mini-shaker (BioSan) at different speeds, timeslots, levels and angle. As an example, one optimal condition was:
The NECS media was exchanged everyday by removing half of the media and adding fresh medium. […] After 6 days in dynamic conditions all NECS were collected and plated in 2D on 48-well plates, laminin coated. For coating, 1:50 natural mouse laminin (L2020-1MG, Sigma-Aldrich, 1 mg/ml) was performing fine, but the type of laminin can be also extended to LN-521 or LN-511 (BioLamina). From day 7 to day 10, now in attachment in 2D, all media was removed, and cells were re-feed with fresh NECS media. An example of the different steps can be shown in FIG. 4, with images after Day 3 (dynamic suspension), Day 8 (neural rosettes in 2D) and Day 10 (before single cell dissociation).
The parameters measured were cell death, rosette formation, a monolayer formation in 2D, thickness of the epithelium formed in the rosette structure, and the absence of side population (all cells being NES and OTX2 positive), i.e. purity of the cell population
Cell death: Monitored by DAPI (4′,6-diamidino-2-phenylindole) staining. Pyknosis, or karyopyknosis, is the irreversible condensation of chromatin in the nucleus of a cell undergoing necrosis or apoptosis. After visual inspection under the fluorescent microscope, a score of 0 represent high number of pyknotic nuclei and a score of 3 a low number of pyknotic nuclei.
Rosette numbers: Monitored by DAPI, ZO1 and NES stainings. After visual inspection under the fluorescent microscope, a score of 0 represent low number of neural rosettes nuclei and a score of 3 a high number of rosettes.
Monolayer formation: Monitored by brightfield and DAPI staining. After visual inspection under the microscope, a score of 3 represent a flat monolayer of cells after NECS attachment.
Thickness of the rosette columnar epithelium: Monitored by DAPI staining. After visual inspection under the fluorescent microscope, a score of 3 represent a broader, thicker columnar epithelium of the neural rosette.
Side population: Monitored by specific stainings of NES and OTX2. After visual inspection under the fluorescent microscope, a score of […] represents no detection of NES negative cells. Only in conditions without NES negative cells, the OTX2 population was evaluated. In those cases, a score of 3 represents no detection of OTX2 negative cells.

[3] = Low concentration (RepSox 0.25 μM, GW788388 0.1 ng/ml, SB525334 0.1 μM), score by DAPI: 0 = high number
[4] = Low concentration (RepSox 0.25 μM, GW788388 0.1 ng/ml, SB525334 0.1 μM), score: 0 = low number
[5] = Low concentration (RepSox 0.25 μM, GW788388 0.1 ng/ml, SB525334 0.1 μM), score: 3 = broader
[6] = Low concentration (RepSox 0.25 μM, GW788388 0.1 ng/ml, SB525334 0.1 μM), score: 3 = flat monolayer of cells after NECS attachment
[7] = Low concentration (RepSox 0.25 μM, GW788388 0.1 ng/ml, SB525334 0.1 μM), score: 6 = no detection of NES negative cells
[8] = Low concentration (RepSox 0.25 μM, GW788388 0.1 ng/ml, SB525334 0.1 μM)
[9] = score by DAPI staining: 0 = high number, RepSox 25 μM, LY2157299 10 μM, TEW-7197 10 μM, GW788388 10 ng/ml, SB525334 10 μM, SB431542 10 μM, SB431542+LDN 10 μM+10 μM, LY2109761 2 μM
[10] = score by DAPI, ZO1, NES staining: 0 = low number, RepSox 25 μM, LY2157299 10 μM, TEW-7197 10 μM, GW788388 10 ng/ml, SB525334 10 μM, SB431542 10 μM, SB431542+LDN 10 μM+10 μM, LY2109761 2 μM
[11] = score by DAPI: 3 = broader, RepSox 25 μM, LY2157299 10 μM, TEW-7197 10 μM, GW788388 10 ng/ml, SB525334 10 μM, SB431542 10 μM, SB431542+LDN 10 μM+10 μM, LY2109761 2 μM
[12] = score by NES staining: 6 = no detection of NES negative cells, RepSox 25 μM, LY2157299 10 μM, TEW-7197 10 μM, GW788388 10 ng/ml, SB525334 10 μM, SB431542 10 μM, SB431542+LDN 10 μM+10 μM, LY2109761 2 μM
[13] = score by brightfield and DAPI: 3 = flat monolayer of cells after NECS attachment, RepSox 25 μM, LY2157299 10 μM, TEW-7197 10 μM, GW788388 10 ng/ml, SB525334 10 μM, SB431542 10 μM, SB431542+LDN 10 μM+10 μM, LY2109761 2 μM
[14] = RepSox 25 μM, LY2157299 10 μM, TEW-7197 10 μM, GW788388 10 ng/ml, SB525334 10 μM, SB431542 10 μM, SB431542+LDN 10 μM+10 μM, LY2109761 2 μM
[15] = RepSox 25 μM, LY2157299 10 μM, TEW-7197 10 μM, SB431542+LDN 10 μM+10 μM, LY2109761 2 μM

Structure (SMILES) | neural rosette formation, RepSox compared to GW788388 (hESC [1]) | morphology of NECS (hESC [1]) | Cell death (hESC [2]; [3]) | Rosette (hESC [2]; [4]) | Thickness Epithelium (hESC [2]; [5]) | Monolayer formation (hESC [2]; [6]) | No Side Population (NES Neg) (hESC [2]; [7]) | Final Score (hESC [2]; [8]) | Cell death (hESC [2]; [9]) | Rosette (hESC [2]; [10]) | Thickness Epithelium (hESC [2]; [11]) | No Side Population (NES Neg) (hESC [2]; [12]) | Monolayer formation (hESC [2]; [13]) | Final Score (hESC [2]; [14]) | No Side Population (OTX2 Neg) (hESC [2]; [15]) | homogeneous population of neural rosettes with NES positive cells and ZO1 in the center of each rosette (hESC [1]; RepSox 25 and 50 μM (FIGS. 7 and 8)) | homogeneous population of neural rosettes with NES positive cells and ZO1 in the center of each rosette (hESC [1]; lower concentrations of RepSox (0.25 μM, 2.5 μM; FIGS. 7 and 8))
O=C(NC1CCOCC1)c1ccc(-c2cc(-c3cn[nH]c3-c3ccccn3)ccn2)cc1 [GW788388, N-(oxan-4-yl)-4-[4-(5-pyridin-2-yl-1H-pyrazol-4-yl)pyridin-2-yl]benzamide] | only few rosettes are observed | darker and denser core | 2 | 2 | 2 | 3 | 0 | 9 | 3 | 3 | 3 | 0 | 3 | 12 | – | – | –
Cc1cccc(-c2[nH]c(CNc3ccccc3F)nc2-c2ccc3ncnn3c2)n1 [TEW-7197, 2-fluoro-N[[5-(6-methylpyridin-2-yl)-4-([1,2,4]triazolo[1,5-a]pyridin-6-yl)-1H-imidazol-2-yl]methyl]aniline] | – | – | – | – | – | – | – | – | – | 2 | 2 | 6 | 2 | 15 | 3 | – | –
Cc1cccc(-c2nn3c(c2-c2ccnc4ccc(C(N)=O)cc24)CCC3)n1 [LY2157299, 4-[2-(6-methylpyridin-2-yl)-5,6-dihydro-4H-pyrrolo[1,2-b]pyrazol-3-yl]quinoline-6-carboxamide] | – | – | – | – | – | – | – | – | 3 | 3 | 3 | 6 | 2 | 17 | 0 | – | –
c1ccc(-c2nn3c(c2-c2ccnc4cc(OCCN5CCOCC5)ccc24)CCC3)nc1 [LY2109761] | – | – | – | – | – | – | – | – | 0 | 0 | 0 | 6 | 0 | 9 | 3 | – | –
Cc1cccc(-c2[nH]c(C(C)(C)C)nc2-c2ccc3nccnc3c2)n1 [SB525334] | – | – | 2 | 3 | 3 | 2 | 0 | 10 | 0 | 3 | 2 | 4 | 2 | 11 | – | – | –
Cc1cccc(-c2n[nH]cc2-c2ccc3ncccc3n2)n1 [RepSox, 2-(3-(6-Methylpyridine-2-yl)-1H-pyrazol-4-yl)-1,5-naphthyridine] | superior; also recorded: multiple neural rosettes are observed | more transparent NECS; also recorded: bright cavities | – | 3 | 3 | 3 | 0 | 12 | – | 3 | 2 | 6 | 3 | 20 | 3 | optimal to obtain an homogeneous population of neural rosettes | less clear effect
NC(=O)c1ccc(-c2nc(-c3ccc4c(c3)OCO4)c(-c3ccccn3)[nH]2)cc1 [SB431542, 4-[4-(1,3-benzodioxol-5-yl)-5-(2-pyridinyl)-1H-imidazol-2-yl]benzamide] | – | – | – | – | – | – | – | – | – | 3 | 2 | 0 | 2 | 10 | – | – | –
